In patent US8741871B2, “Trehalose compound, method for producing same, and pharmaceutical product containing the compound” (priority 2008, dated 2014):

Columns and labels:
[1] = tested on: THP-1 cells; experiment: Release of cytokine (MIP-1β, TNF-α) from THP-1 cells (ELISA); assay type: cell-based, human; settings: 100 μM test compound, 2 hours, FIG. 9; for release level of TNF-α from THP-1 cells compared with the negative control: negative control vehicle; for release level of MIP-1β from THP-1 cells compared with the positive control: positive controls control compound A and TDCM
[2] = tested on: Salmonella typhmurium TA98; experiment: Mutagenicity test (Ames test); settings: TA98, in the presence or absence of S9 mix; FIG. 11
[3] = tested on: mouse intraperitoneal macrophages; experiment: Measurement of phagocytic ability of mouse intraperitoneal macrophages (fluorescent beads); assay type: cell-based; settings: 50 μM test compound, 2 hours, FIG. 2
Procedure: Mouse intraperitoneal macrophages, a 40 mM test compound solution, and an RPMI1640 medium were prepared in the same manner as described above.
In the following experiment, Fluoresbrite (trademark) Carboxylate Microspheres (2.58% Solids-Latex) YG (Polysciences, Inc.) were used as fluorescent beads.
Macrophages were added to a TC-Plate (TC-PLATE 24 WELL, STERILE WITH LID, IND PACKED, greiner bio-one), so that they became 80% confluent. The macrophages were incubated at 37° C. for 2 hours. Thereafter, the supernatant was discarded, and the cells were then washed with 500 μl of RPMI 1640 medium two times. Each composition shown in Table 3 below was added to the TC-Plate, and it was then incubated at 37° C. for 2 hours. Thereafter, the supernatant was discarded, and the cells were then washed with 300 μl of sterilized PBS (−). In order to remove fluorescent beads that had not been incorporated into the cells, the aforementioned washing operation was repeatedly carried out two times. Macrophages were peeled off with 200 μl of sterilized PBS (−), and were then transferred into an Eppendorf tube. The macrophages were centrifuged at 1,500 rpm for 8 minutes. […]
Using FUJI FILM FLA-2000, the amount of fluorescent beads incorporated into the cells was measured [fluorescence intensity (Fluor 473 nm, Y520 Filter)]. For analysis, Image Reader V1.4J was used.

[4] = tested on: mouse intraperitoneal macrophages; experiment: Measurement of cytokine released from mouse intraperitoneal macrophages (ELISA); assay type: cell-based; settings: 100 μM test compound, two hours
Procedure: Mouse intraperitoneal macrophages, a 40 mM test compound solution, and an RPMI 1640 medium were prepared in the same manner as described above.
Macrophages were added to a TC-Plate, so that they became 80% confluent. The macrophages were incubated at 37° C. for 2 hours. Thereafter, the supernatant was discarded, and the cells were then washed with 500 μl of RPMI 1640 medium. This washing operation was repeatedly carried out two times. An emulsion solution of the test compound (final concentration: 100 μM) was allowed to act on the macrophages, and two hours later, the medium was transferred into another Eppendorf tube. […] This supernatant was used as a sample, and the released cytokines were analyzed using ELISA kit (IL-6, TNF-α Quantikine Immunoassay (R & D System (trademark)).

[5] = tested on: Welch bacillus (Type A; NTCT8237); assay type: in vivo
Procedure: As test compounds, 1 mg each of the compound synthesized by the method described in Production Example α-1 and TDCM were weighed. Emulsion solutions of the test compounds (1 mg/ml) were prepared in the same manner as described above.
[…] of Brain Heart Infusion (BHI) (Difco) powders were dissolved in 200 ml of distilled water. 40 ml of the obtained solution (hereinafter this solution is referred to as a “BHI medium”) was withdrawn with a measuring pipette, and it was then added to a 200-ml flask, followed by performing a high-pressure steam sterilization (121° C., 20 minutes). In addition, 5 ml of the BHI medium was added to two screw-top test tubes, and they were then subjected to a high-pressure steam sterilization. Moreover, a glass tube-equipped rubber plug (with a cotton plug) and a glass tube were also subjected to a high-pressure steam sterilization. In a clean bench, an appropriate amount of bacteria for preservation, which had grown on a cooked meat medium, was collected with a sterilized Pasteur pipette, and it was then inoculated on the BHI medium in the aforementioned sterilized screw-top test tube. Subsequently, it was incubated at 37° C. overnight.
In a clean bench, bacteria that had grown in the screw-top test tube (wherein the inside of the […] in which bacteria had grown became clouded, and gas was generated) was transferred into a 200-ml Erlenmeyer flask, which contained 40 ml of BHI medium. A glass tube was inserted into the medium, so as to carry out nitrogen substitution for 10 minutes. Subsequently, the glass tube-equipped rubber plug (with a cotton plug) was equipped in the Erlenmeyer flask (since Welch bacillus generates gas, it is necessary to make an air vent), and incubation was then carried out at 37° C. for 4 to 5 hours. Thereafter, the cultured Welch bacillus was transferred into a centrifuge tube, it was then centrifuged (9000 rpm, 15 minutes), and the supernatant was then removed. 20 ml of sterilized normal saline solution was added to the precipitate, so that the bacteria were suspended therein. The suspension was centrifuged (9000 rpm, 15 minutes), and the supernatant was then removed.
Mice (ICR, 6-week-old) were divided into three groups, and the following test was then carried out.
An emulsion solution containing the test compound, an emulsion solution containing TDCM, or an emulsion solution alone, which was to be used as a control, was intraperitoneally administered in an amount of 100 μg/mouse to a group of four mice (100 μl/mouse, in the case of the emulsion solution alone). Three hours later, Welch bacillus (2.4×10^7 cells/mouse) was intraperitoneally administered to the mice. Thereafter, the condition of the mice was observed.

[6] = tested on: IL-6, TNF-α, IFN-γ in mouse plasma; experiment: Measurement of IL-6, TNF-α and IFN-γ released into peripheral blood of test compound administered mouse; settings: 100 μg/mouse intravenous, two hours later; for IL-6-releasing activity (mouse plasma IL-6 concentration) compared with TDCM: FIG. 6; for IFN-γ-releasing activity (mouse plasma IFN-γ concentration) compared with TDCM: FIG. 7
[7] = tested on: mouse intraperitoneal infiltrating cells; experiment: Cell infiltration into mouse abdominal cavity (cell count, Giemsa staining, flow cytometry); settings: 100 μg/mouse i.p.
[8] = tested on: Pseudomonas aeruginosa; assay type: in vivo
[9] = twenty-four hours after administration, flow cytometry

CCCCCCCCCCC(CCCCCCCCCC)C(=O)OCC1O[C@H](O[C@H]2OC(COC(=O)C(CCCCCCCCCC)CCCCCCCCCC)[C@@H](O)C(O)C2O)C(O)C(O)[C@@H]1O (stereo partly drawn) [Example 1, 6,6′-bis-O-(2-decyldodecanoyl)-α,α′-trehalose]
release level of TNF-α from THP-1 cells compared with the negative control [1]: almost equivalent to
release level of MIP-1β from THP-1 cells compared with the positive control [1]: higher than
mutagenicity (Ames test, number of His colonies) [2]: significant results could be obtained
action to activate the phagocytosis of mouse intraperitoneal macrophages, compared with TDCM [3]: approximately two times higher than the activity of TDCM
amount of IL-6 released from mouse intraperitoneal macrophages ([4]; vehicle approximately 15 pg/ml): approximately 200 pg/ml
amount of TNF-α released from mouse intraperitoneal macrophages ([4]; vehicle approximately 80 pg/ml): approximately 1000 pg/ml
Number of surviving mice/number of treated mice, 2 hours later ([5]; 100 μg/mouse i.p. three hours before Welch bacillus 2.4×10^7 cells/mouse i.p., 2 hours later): 4/4
Number of surviving mice/number of treated mice, 6 hours later ([5]; 100 μg/mouse i.p. three hours before Welch bacillus 2.4×10^7 cells/mouse i.p., 6 hours later): 4/4
Number of surviving mice/number of treated mice, 12 hours later ([5]; 100 μg/mouse i.p. three hours before Welch bacillus 2.4×10^7 cells/mouse i.p., 12 hours later): 4/4
Number of surviving mice/number of treated mice, 24 hours later ([5]; 100 μg/mouse i.p. three hours before Welch bacillus 2.4×10^7 cells/mouse i.p., 24 hours later): 3/4
Number of surviving mice/number of treated mice, 48 hours later ([5]; 100 μg/mouse i.p. three hours before Welch bacillus 2.4×10^7 cells/mouse i.p., 48 hours later): 3/4
mice that escaped death in Welch bacillus lethal models ([5]; 100 μg/mouse i.p., text summary of Table 4): three out of the four mice
IL-6-releasing activity (mouse plasma IL-6 concentration) compared with TDCM [6]: approximately 1.2 times
IFN-γ-releasing activity (mouse plasma IFN-γ concentration) compared with TDCM [6]: approximately 1.5 times
plasma TNF-α concentration in mice, activity compared with TDCM ([6]; FIG. 8): the same level as that of TDCM

CCCCCCCCCC(CCCCCCCCC)CC(=O)OCC1O[C@H](O[C@H]2OC(COC(=O)CC(CCCCCCCCC)CCCCCCCCC)[C@@H](O)C(O)C2O)C(O)C(O)[C@@H]1O (stereo partly drawn) [Example 9, 6,6′-bis-O-(3-nonyldodecanoyl)-α,α′-trehalose]
release level of TNF-α from THP-1 cells compared with the negative control [1]: almost equivalent to
release level of MIP-1β from THP-1 cells compared with the positive control [1]: 8 to 10 times
infiltrating cells in the abdominal cavity of mice over time ([7]; 2 hours or 24 hours after administration, FIG. 12): an increase in infiltrating cells was observed time-dependently
abundance ratio of the CD11b-positive cells and CD4-positive cells compared with vehicle [7, 9]: hardly changed
total number of CD11b-positive cells, CD4-positive cells and CD8-positive cells compared with vehicle [7, 9]: 15 to 20 times
abundance ratio of the CD8-positive cells compared with vehicle ([7]; twenty-four hours after administration, flow cytometry, FIGS. 13 to 15): 2 to 3 times
number of infiltrating cells in mouse abdominal cavity compared with vehicle ([7]; twenty-four hours later, FIG. 12): 15 to 20 times
mutagenicity (Ames test, number of His colonies) [2]: did not exhibit mutagenicity
action to activate the phagocytosis of mouse intraperitoneal macrophages, compared with TDCM [3]: approximately two times higher than the activity of TDCM
lethality of Pseudomonas aeruginosa-infected mice, post-administration ([8]; 100 μg/mouse i.p. three hours after infection with Pseudomonas aeruginosa, FIG. 18): significantly suppressed
lethality of Pseudomonas aeruginosa-infected mice, pre-administration ([8]; pre-administration 100 μg/mouse i.p., twenty-four hours later 3.0×10^10 CFU/mL Pseudomonas aeruginosa i.p., FIG. 17): significantly suppressed
IL-6-releasing activity (mouse plasma IL-6 concentration) compared with TDCM [6]: approximately 1.5 times
IFN-γ-releasing activity (mouse plasma IFN-γ concentration) compared with TDCM [6]: approximately 1.5 times
